Laboratory results: publication PMC10991509, “A phase I study of ATR inhibitor gartisertib (M4344) as a single agent and in combination with carboplatin in patients with advanced solid tumours” (British Journal of Cancer, 2024)

Key:
advanced solid tumours = assay: Antitumour activity (RECIST v1.1); type: in vivo, human
Text: The secondary objectives for cohorts A, A2, and B1 were to assess antitumour activity and PK. Endpoints associated with antitumour activity included confirmed best overall response (BOR), according to RECIST v1.1. PK endpoints included PK parameter estimates, derived from plasma concentration-time data. Please see the Supplementary Materials for details on further PK endpoints and assessments as well as the PK assessment schedule (Supplementary Table S2).
In cohort C, the primary objectives were to evaluate safety, tolerability, and antitumour activity of gartisertib monotherapy in patients with LOF mutations in ARID1A (cohort C1), ATRX and/or DAXX (cohort C2), or ATM (cohort C3). The primary endpoints included safety (treatment-emergent AEs [TEAEs] and treatment-related TEAEs; laboratory abnormalities; clinically significant abnormal vital signs; and clinically significant abnormal ECGs and antitumour activity (objective response [OR], defined as confirmed BOR of complete response [CR] or partial response [PR], according to RECIST v1.1). Secondary endpoints included duration of response; progression-free survival [PFS]) as well as PK parameter estimates of gartisertib in patients with LOF mutations. The Supplementary Materials provide further information on efficacy assessments and definitions.
In cohorts A, A2, B1, and C, antitumor activity was assessed in patients with measurable disease with standard criteria (Response Evaluation Criteria in Solid Tumors version 1.1 [RECIST v1.1]). In patients with prostate cancer, Prostate Cancer Clinical Trials Working Group 2 (PCWG2) criteria were used. Patients underwent an imaging scan at screening to document extent of initial disease and in all cohorts of the study, patients underwent repeat imaging scans. Imaging scans were locally assessed for all study cohorts. Bone scans were performed as were evaluations of serum […] in patients with ovarian cancer and serum prostate-specific antigen in patients with prostate cancer.
In addition, for cohort C, tumor assessments according to RECIST v1.1 were performed at baseline and at completion of every two cycles of treatment for the first six cycles and then every three cycles thereafter until disease progression or initiation of a new anticancer therapy line. Objective response, best overall response, duration of response and progression-free survival will be determined by the investigator based on these tumor assessments, with objective responses needing to be confirmed at a scan no fewer than 4 weeks after the original evaluation. Independent review may be performed if necessary.
Objective response was defined as a confirmed assessment of complete response or partial response by the investigator using RECIST v1.1. Confirmed best overall response was defined as the best confirmed response from start of treatment. Tumor assessments performed after start of further anticancer treatment line were not used to determine best overall response. Progression-free survival was defined as the time between the start of study treatment to progressive disease (PD) or death (in case PD is not observed prior to death).

UGT1A1 = UGT1A1 (Canis lupus familiaris, UniProt A0A8I3S535); assay: UGT1A1 inhibition in dog liver microsomes
UGT1A1, sequence (A0A8I3S535 entry or part of it): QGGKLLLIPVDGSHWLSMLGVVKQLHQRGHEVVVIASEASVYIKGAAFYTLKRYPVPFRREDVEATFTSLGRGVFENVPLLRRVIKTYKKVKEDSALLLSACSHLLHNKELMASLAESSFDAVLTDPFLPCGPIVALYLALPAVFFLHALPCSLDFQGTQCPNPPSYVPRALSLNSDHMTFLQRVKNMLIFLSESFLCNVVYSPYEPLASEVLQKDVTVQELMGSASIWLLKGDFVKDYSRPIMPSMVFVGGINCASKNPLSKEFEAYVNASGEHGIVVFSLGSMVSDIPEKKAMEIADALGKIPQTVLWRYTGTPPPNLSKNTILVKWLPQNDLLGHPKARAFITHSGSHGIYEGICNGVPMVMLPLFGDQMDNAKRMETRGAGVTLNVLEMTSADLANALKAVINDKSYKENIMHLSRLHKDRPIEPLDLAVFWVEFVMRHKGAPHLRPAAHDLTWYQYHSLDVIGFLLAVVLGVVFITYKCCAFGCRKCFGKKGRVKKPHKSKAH

## Nc1nn2cc(F)cnc2c1C(=O)Nc1cncc(F)c1N1CCC(C(=O)N2CCN(C3COC3)CC2)CC1 [gartisertib, Gartisertib]
Advanced solid tumours; Cohort A2, 100 mg BID (N=7)
  cBOR Not evaluable: 2 (28.6) n patients (%)
  cBOR Partial response: 0 (0.0) n patients (%)
  cBOR Progressive disease: 4 (57.1) n patients (%)
  cBOR Stable disease: 1 (14.3) n patients (%)
Advanced solid tumours; Cohort A2, 150 mg QD (N=4)
  cBOR Not evaluable: 0 (0.0) n patients (%)
  cBOR Partial response: 0 (0.0) n patients (%)
  cBOR Progressive disease: 3 (75.0) n patients (%)
  cBOR Stable disease: 1 (25.0) n patients (%)
Advanced solid tumours; Cohort A2, 250 mg QD (N=7)
  cBOR Not evaluable: 0 (0.0) n patients (%)
  cBOR Partial response: 0 (0.0) n patients (%)
  cBOR Progressive disease: 3 (42.9) n patients (%)
  cBOR Stable disease: 4 (57.1) n patients (%)
Advanced solid tumours; Cohort A2, 350 mg QD (N=5)
  cBOR Not evaluable: 0 (0.0) n patients (%)
  cBOR Partial response: 0 (0.0) n patients (%)
  cBOR Progressive disease: 3 (60.0) n patients (%)
  cBOR Stable disease: 2 (40.0) n patients (%)
Advanced solid tumours; Cohort A, 10 mg BIW (N=1)
  cBOR Not evaluable: 1 (100.0) n patients (%)
  cBOR Partial response: 0 (0.0) n patients (%)
  cBOR Progressive disease: 0 (0.0) n patients (%)
  cBOR Stable disease: 0 (0.0) n patients (%)
Advanced solid tumours; Cohort A, 20 mg BIW (N=1)
  cBOR Not evaluable: 0 (0.0) n patients (%)
  cBOR Partial response: 0 (0.0) n patients (%)
  cBOR Progressive disease: 0 (0.0) n patients (%)
  cBOR Stable disease: 1 (100.0) n patients (%)
Advanced solid tumours; Cohort A, 40 mg BIW (N=1)
  cBOR Not evaluable: 0 (0.0) n patients (%)
  cBOR Partial response: 0 (0.0) n patients (%)
  cBOR Progressive disease: 1 (100.0) n patients (%)
  cBOR Stable disease: 0 (0.0) n patients (%)
Advanced solid tumours; Cohort A, 80 mg BIW (N=1)
  cBOR Not evaluable: 0 (0.0) n patients (%)
  cBOR Partial response: 0 (0.0) n patients (%)
  cBOR Progressive disease: 1 (100.0) n patients (%)
  cBOR Stable disease: 0 (0.0) n patients (%)
Advanced solid tumours; Cohort A, 160 mg BIW (N=1)
  cBOR Not evaluable: 0 (0.0) n patients (%)
  cBOR Partial response: 0 (0.0) n patients (%)
  cBOR Progressive disease: 1 (100.0) n patients (%)
  cBOR Stable disease: 0 (0.0) n patients (%)
Advanced solid tumours; Cohort A, 300 mg BIW (N=1)
  cBOR Not evaluable: 0 (0.0) n patients (%)
  cBOR Partial response: 0 (0.0) n patients (%)
  cBOR Progressive disease: 1 (100.0) n patients (%)
  cBOR Stable disease: 0 (0.0) n patients (%)
Advanced solid tumours; Cohort A, 450 mg BIW (N=3)
  cBOR Not evaluable: 0 (0.0) n patients (%)
  cBOR Partial response: 0 (0.0) n patients (%)
  cBOR Progressive disease: 1 (33.3) n patients (%)
  cBOR Stable disease: 2 (66.7) n patients (%)
Advanced solid tumours; Cohort A, 700 mg BIW (N=6)
  cBOR Not evaluable: 2 (33.3) n patients (%)
  cBOR Partial response: 0 (0.0) n patients (%)
  cBOR Progressive disease: 2 (33.3) n patients (%)
  cBOR Stable disease: 2 (33.3) n patients (%)
Advanced solid tumours; Cohort A, 1050 mg BIW (N=7)
  cBOR Not evaluable: 1 (14.3) n patients (%)
  cBOR Partial response: 0 (0.0) n patients (%)
  cBOR Progressive disease: 5 (71.4) n patients (%)
  cBOR Stable disease: 1 (14.3) n patients (%)
Advanced solid tumours; Cohort A, 1200 mg BIW (N=4)
  cBOR Not evaluable: 2 (50.0) n patients (%)
  cBOR Partial response: 0 (0.0) n patients (%)
  cBOR Progressive disease: 1 (25.0) n patients (%)
  cBOR Stable disease: 1 (25.0) n patients (%)
Advanced solid tumours; Cohort C, 250 mg QD (N=13)
  cBOR Not evaluable: 2 (15.4) n patients (%)
  cBOR Partial response: 0 (0.0) n patients (%)
  cBOR Progressive disease: 8 (61.5) n patients (%)
  cBOR Stable disease: 3 (23.1) n patients (%)
Advanced solid tumours; cohort A2 (full analysis set 23)
  BOR of SD: 34.8%
Advanced solid tumours; cohort A (full analysis set 26)
  BOR of SD: 26.9%
Advanced solid tumours; cohort C (full analysis set 13)
  BOR of SD: 23.1%
Advanced solid tumours; cohort C, 95% CI 0.8, 2.1
  median PFS interval: 1.6 months
Advanced solid tumours; cohorts A2 and C
  disease control according to selected biomarker status (ARID1A, ATRX/DAXX, ATM): No difference in disease control
Advanced solid tumours; three patients across all study cohorts
  patients with SD for >6 months: 3.1%
UGT1A1
  IC50: > 50 µM
